The source of these data is paper PMC11354698, “Functional Characterization of an Odorant Receptor Expressed in Newly Hatched Larvae of Fall Armyworm Spodoptera frugiperda” (Insects, 2024).

In the assay the target is T1, SfruOR40/Orco (SfruOR40 co-expressed with SfruOrco) (Spodoptera frugiperda, UniProt A0A9R0D2T2).
T1 construct: gene LOC118267896; full-length ORF of SfruOR40 (395 residues); with Odorant receptor coreceptor
T1 sequence (A0A9R0D2T2 1-395): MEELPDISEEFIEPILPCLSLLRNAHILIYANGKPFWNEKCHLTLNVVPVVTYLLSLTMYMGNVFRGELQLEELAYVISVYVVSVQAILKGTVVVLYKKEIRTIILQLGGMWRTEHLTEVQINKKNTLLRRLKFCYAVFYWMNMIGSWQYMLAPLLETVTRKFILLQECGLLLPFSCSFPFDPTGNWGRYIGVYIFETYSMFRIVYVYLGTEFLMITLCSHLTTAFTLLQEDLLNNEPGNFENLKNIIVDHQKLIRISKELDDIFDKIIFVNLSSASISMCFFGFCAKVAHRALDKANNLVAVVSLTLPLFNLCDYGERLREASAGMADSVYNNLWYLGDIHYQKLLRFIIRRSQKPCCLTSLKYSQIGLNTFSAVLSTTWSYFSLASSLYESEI
T1 sequence (A0A9F1UC78 1-473 partner): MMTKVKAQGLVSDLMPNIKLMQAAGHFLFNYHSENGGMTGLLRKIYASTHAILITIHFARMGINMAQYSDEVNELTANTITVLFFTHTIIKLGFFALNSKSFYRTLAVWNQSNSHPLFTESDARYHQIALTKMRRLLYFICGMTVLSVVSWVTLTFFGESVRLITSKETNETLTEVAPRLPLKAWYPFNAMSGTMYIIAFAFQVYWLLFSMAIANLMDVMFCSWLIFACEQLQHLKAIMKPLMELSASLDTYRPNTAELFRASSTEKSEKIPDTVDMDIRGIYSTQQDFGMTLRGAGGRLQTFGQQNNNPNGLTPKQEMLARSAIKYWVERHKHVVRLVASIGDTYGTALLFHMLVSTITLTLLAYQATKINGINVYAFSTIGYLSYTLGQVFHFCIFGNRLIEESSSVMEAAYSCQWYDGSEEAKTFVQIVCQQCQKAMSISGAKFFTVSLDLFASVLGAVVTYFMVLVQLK
Nature of the assay: two-electrode voltage clamp, Xenopus oocytes. In kind it is cell-based. Conditions: agonist, 10^-4 M odorant, -80 mV, Ringer's buffer pH 7.6, 0.1% DMSO, n = 7.

As for `C=C1CC/C=C(\C)CC[C@@H]2[C@@H]1CC2(C)C` [(−)-trans-Caryophyllene], the “mean current amplitude at 10^-4 M” value was determined as 111 nA.

As for `C=C1CC[C@H]2O[C@]2(C)CC[C@@H]2[C@@H]1CC2(C)C` [(−)-trans-Caryophyllene oxide], the “mean current amplitude at 10^-4 M” value is 90 nA.

For `C/C1=C\CC/C(C)=C/CC(C)(C)/C=C/C1` [α-Humulene], the “mean current amplitude at 10^-4 M” value is reported as 206 nA.
